Key:
Details in all cases: incubation time: 72 h
MDA-MB-453 [1] = test: normalised response (% of control), CellTiter-Glo; higher = more viable cells (100 = DMSO, 0 = benzethonium chloride kill control)
Protocol: (§1)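 DSRT, 72 h incubation, CellTox Green / CellTiter-Glo readout. Signal is normalised to DMSO and benzethonium chloride controls. Value is the normalised response at the highest dose.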

DU-4475 [2] = test: as above
Protocol: as §1

CAL-85-1 [3] = test: as above
Protocol: as §1

SK-BR-3 = test: as above
Protocol: as §1

HCC1937 [4] = test: as above
Protocol: as §1

MDA-MB-468 [5] = test: as above
Protocol: as §1

HDQ-P1 [6] = test: as above
Protocol: as §1

BT-474 [7] = test: as above
Protocol: as §1

CAL-148 [8] = test: as above
Protocol: as §1

MDA-MB-231 [9] = test: as above
Protocol: as §1

MCF-10A [10] = test: as above
Protocol: as §1

Hs578T [11] = test: as above
Protocol: as §1

HCC1143 [12] = test: as above
Protocol: as §1

BT-549 [13] = test: as above
Protocol: as §1

MDA-MB-436 [14] = test: as above
Protocol: as §1

HCC1599 [15] = test: as above
Protocol: as §1

MFM-223 [16] = test: as above
Protocol: as §1

CAL-51 [17] = test: as above
Protocol: as §1

CAL-120 [18] = test: as above
Protocol: as §1

MDA-MB-453 [19] = test: normalised response (% of control), CellTox Green; higher = less cell death (100 = DMSO, 0 = benzethonium chloride kill control)
Method in brief: (§2)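 For each plate, 0.1 % DMSO was set to 100 and a positive kill control to 0. Breast cancer cell lines (20 µl suspension) were seeded into 384-well plates already holding compound at 5 concentrations in 10-fold steps over a 10,000-fold range chosen per compound, and incubated for 72 h. CellTox Green fluorescence at 485/520 nm was read before CellTiter-Glo luminescence, which followed 10 min at room temperature. Each value is the normalised signal at one concentration.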

DU-4475 [20] = test: as above
Method in brief: as §2

CAL-85-1 [21] = test: as above
Method in brief: as §2

HCC1937 [22] = test: as above
Method in brief: as §2

MDA-MB-468 [23] = test: as above
Method in brief: as §2

HDQ-P1 [24] = test: as above
Method in brief: as §2

BT-474 [25] = test: as above
Method in brief: as §2

CAL-148 [26] = test: as above
Method in brief: as §2

MDA-MB-231 [27] = test: as above
Method in brief: as §2

MCF-10A [28] = test: as above
Method in brief: as §2

Hs578T [29] = test: as above
Method in brief: as §2

HCC1143 [30] = test: as above
Method in brief: as §2

BT-549 [31] = test: as above
Method in brief: as §2

MDA-MB-436 [32] = test: as above
Method in brief: as §2

HCC1599 [33] = test: as above
Method in brief: as §2

MFM-223 [34] = test: as above
Method in brief: as §2

CAL-51 [35] = test: as above
Method in brief: as §2

CAL-120 [36] = test: as above
Method in brief: as §2

Row | Structure (SMILES) | normalised response (MDA-MB-453 [1]) | normalised response (DU-4475 [2]) | normalised response (CAL-85-1 [3]) | normalised response (SK-BR-3) | normalised response (HCC1937 [4]) | normalised response (MDA-MB-468 [5]) | normalised response (HDQ-P1 [6]) | normalised response (BT-474 [7]) | normalised response (CAL-148 [8]) | normalised response (MDA-MB-231 [9]) | normalised response (MCF-10A [10]) | normalised response (Hs578T [11]) | normalised response (HCC1143 [12]) | normalised response (BT-549 [13]) | normalised response (MDA-MB-436 [14]) | normalised response (HCC1599 [15]) | normalised response (MFM-223 [16]) | normalised response (CAL-51 [17]) | normalised response (CAL-120 [18]) | normalised response (MDA-MB-453 [19]) | normalised response (DU-4475 [20]) | normalised response (CAL-85-1 [21]) | normalised response (HCC1937 [22]) | normalised response (MDA-MB-468 [23]) | normalised response (HDQ-P1 [24]) | normalised response (BT-474 [25]) | normalised response (CAL-148 [26]) | normalised response (MDA-MB-231 [27]) | normalised response (MCF-10A [28]) | normalised response (Hs578T [29]) | normalised response (HCC1143 [30]) | normalised response (BT-549 [31]) | normalised response (MDA-MB-436 [32]) | normalised response (HCC1599 [33]) | normalised response (MFM-223 [34]) | normalised response (CAL-51 [35]) | normalised response (CAL-120 [36])
1 | CCn1c(-c2nonc2N)nc2cnc(Oc3cccc(NC(=O)c4ccc(OCCN5CCOCC5)cc4)c3)cc21 (10000 nM) | 72.2% | 80% | 87.8% | 40.9% | 76.6% | 50.7% | 75.9% | 66% | 69.9% | 64.4% | 62.9% | 49% | 76.4% | 41.4% | 73.3% | 74.6% | 62.1% | 32.8% | 58.5% | 108% | 97.6% | 109% | 78.5% | 74.3% | 109% | 98% | -66.5% | 52.4% | 93.4% | 110% | -33.8% | 100% | 74.1% | 97.9% | 93.6% | 43.7% | 103%
2 | COc1cc(O)c2c(c1)/C=C/C[C@H](O)[C@H](O)C(=O)/C=C\C[C@H](C)OC2=O [(5Z)-7-Oxozeaenol] (10000 nM) | 38.5% | 4.88% | 13.9% | 23.5% | 32.5% | 21.4% | 20.5% | 14% | 26.9% | 4.8% | 34.5% | 9.82% | 39.9% | 4.83% | 25.1% | 32.7% | 25.6% | 3.02% | 41.3% | 85.9% | 57.9% | 27.7% | -41.8% | 51.8% | 87.9% | 54.5% | 56.2% | 28.4% | 64.3% | 49.4% | 135% | 79.2% | 102% | 97.8% | 67.3% | 45.5% | 83.6%
3 | CNC(=O)c1cccc(-c2ccc3c(N4CCOC[C@@H]4C)nc(N4CCOC[C@@H]4C)nc3n2)c1 [AZD2014] (10000 nM) | 33% | 23.8% | 27.3% | 20% | 42.3% | 25.6% | 34.1% | 49.6% | 15.3% | 46.2% | 33.9% | 27.4% | 25.4% | 19.9% | 54.4% | 65.3% | 33.6% | 20.6% | 23.6% | 95.2% | 86.3% | 77.8% | 108% | 136% | 104% | 96.4% | 58.9% | 107% | 96% | 129% | 110% | 74.9% | 95% | 95% | 93.4% | 90.1% | 106%
4 | Nc1cc(C(F)(F)F)c(-c2cc(N3CCOCC3)nc(N3CCOCC3)n2)cn1 [Buparlisib] (10000 nM) | 75.6% | 80.2% | 83.3% | 81.5% | 36.2% | 11.3% | 46.9% | 15.8% | 79.9% | 48% | 36% | 75% | 57.4% | 3.53% | 65.4% | 94.3% | 47.8% | 1.1% | 56.3% | 97.9% | 95.8% | 104% | 50.4% | 111% | 85.7% | 24% | 70% | 29.4% | 79.4% | 18% | 68.6% | 33.8% | 75.9% | 93.4% | 81.7% | -15.4% | 92.1%
5 | CNC(=O)c1ccc(N2C(=S)N(c3ccc(C#N)c(C(F)(F)F)c3)C(=O)C23CCC3)cc1F [RD162] (10000 nM) | 91.8% | 95.5% | 91.5% | 95.3% | 93.8% | 93.3% | 92.3% | 89.8% | 105% | 85.1% | 102% | 101% | 95% | 96.3% | 92.6% | 106% | 89.5% | 95.3% | 101% | 96.3% | 98.4% | 91.2% | 90.6% | 89.8% | 106% | 103% | 97.4% | 99.8% | 111% | 110% |  | 84.9% | 95.4% | 97.1% | 50.8% | 109% | 101%
6 | S=P(N1CC1)(N1CC1)N1CC1 [Thio-TEPA] (50000 nM) | 111% | 100% | 93.7% | 101% | 93% | 96.9% | 99.7% | 91.7% | 98.1% | 94.8% | 104% | 103% | 95.6% | 77.2% | 104% | 111% | 101% | 63.8% | 97.2% | 103% | 97.7% | 93.8% | 73.4% | 119% | 97.6% | 101% | 89.4% | 113% | 97.2% |  |  | 93.5% | 103% | 97.7% | 77.7% | 48.1% | 99%

From the supplement of paper PMC4862054
